One may read the IC50 as the concentration that inhibits the measured activity by half. The low end stands for inhibition by little substance, the high end for a need for much substance.

From patent US8748418B2, “1,4-oxazepines as BACE1 and/or BACE2 inhibitors” (Hoffmann-La Roche Inc., priority 2011, dated 2014) come the findings set out here.

In one assay the target is BACE1 (Homo sapiens (Human), UniProt P56817). Briefly: Cellular Aβ-lowering assay (Aβ40 ELISA in HEK293 cells expressing human APP695). As to conditions: HEK293 cells stably transfected with human APP wt (APP695), Aβ40 in supernatant after 18-20 hrs. The assay is classed as cell-based. How it is done:
Cellular Aβ-Lowering Assay:
Human HEK293 cells which are stably transfected with a vector expressing a cDNA of the human APP wt gene (APP695) were used to assess the potency of the compounds in a cellular assay. The cells were seeded in 96-well microtiter plates in cell culture medium (Iscove, plus 10% (v/v) fetal bovine serum, glutamine, penicillin/streptomycin) to about 80% confluence and the compounds were added at a 10× concentration in 1/10 volume of medium without FCS containing 8% DMSO (final concentration of DMSO was kept at 0.8% v/v). After 18-20 hrs incubation at 37° C. and 5% CO2 in a humidified incubator the culture supernatant was harvested for the determination of Aβ40 concentrations. 96 well ELISA plates (e.g., Nunc MaxiSorb) were coated with monoclonal antibody which specifically recognize the C-terminal end of Aβ40 (Brockhaus et al., NeuroReport 9, 1481-1486; 1998). After blocking of non-specific binding sites with e.g. 1% BSA and washing, the culture supernatants were added in suitable dilutions together with a horseradish peroxidase-coupled Aβ detection antibody (e.g., antibody 4G8, Senetek, Maryland Heights, Mo.) and incubated for 5 to 7 hrs. Subsequently the wells of the microtiter plate were washed extensively with Tris-buffered saline containing 0.05% Tween 20 and the assay was developed with tetramethylbenzidine/H2O2 in citric acid buffer. After stopping the reaction with one volume 1NH2SO4 the reaction was measured in an ELISA reader at 450 nm wavelength. The concentrations of Aβ in the culture supernatants were calculated from a standard curve obtained with known amounts of pure Aβ peptide.
For orientation: An ELISA detects its analyte on a solid surface through an enzyme-linked reagent.

The target of the next assay is BACE2 (Homo sapiens (Human), UniProt Q9Y5Z0). As to the kind of experiment: Immunofluorescence Resonance Energy Transfer (FRET) assay for BACE2 inhibition. The assay is classed as biochemical. To be noted: TMEM27-based peptide substrate 5 μM, pH 4.5. As for the experimental part:
Immunofluorescence Resonance Energy Transfer (FRET) Assay for BACE2 Inhibition:
BACE2 enzyme ectodomain (derived from plasmid “pET17b-T7-hu proBACE2”) was prepared as described in Ostermann et al., “Crystal Structure of Human BACE2 in Complex with a Hydroxyethylamine Transition-state Inhibitor”, Journal of Molecular Biology 2006, 355, 249-261. The pro-enzyme was stored at 4° C. at a concentration of 70 μg/ml.
The FRET assay was performed essentially as described in Grüninger-Leitch et al., Journal of Biological Chemistry (2002) 277(7) 4687-93 (“Substrate and inhibitor profile of BACE (beta-secretase) and comparison with other mammalian aspartic proteases”). In summary, a peptide is designed that is cleaved by the protease. The peptide is labelled with dabcyl at the N terminus and Lucifer Yellow at the C-terminus, such that for an intact peptide the Lucifer Yellow fluorescence is quenched by the dabcyl. When the peptide is cut by BACE2, the quenching is removed and a fluorescent signal is generated.
The assay was performed as described in Grueninger et al. 2002 at pH 4.5 using a substrate concentration of 5 μM. A FRET peptide based on the TMEM27 sequence was devised. dabcyl-[…]-LucY (SEQ ID NO: 1).
The assay readout is the initial rate of change of fluorescence intensity giving a relative measure of BACE2 activity. Small values correspond to high inhibition and larger values to low inhibition. […] IC50 values were determined using these assay values generated for a range of inhibitor concentrations and the curve fitting software XLfit (IDBS) using the Sigmoidal Dose-Response Model.

Structures are written as SMILES.

Chain of BACE1 (P56817 46-501): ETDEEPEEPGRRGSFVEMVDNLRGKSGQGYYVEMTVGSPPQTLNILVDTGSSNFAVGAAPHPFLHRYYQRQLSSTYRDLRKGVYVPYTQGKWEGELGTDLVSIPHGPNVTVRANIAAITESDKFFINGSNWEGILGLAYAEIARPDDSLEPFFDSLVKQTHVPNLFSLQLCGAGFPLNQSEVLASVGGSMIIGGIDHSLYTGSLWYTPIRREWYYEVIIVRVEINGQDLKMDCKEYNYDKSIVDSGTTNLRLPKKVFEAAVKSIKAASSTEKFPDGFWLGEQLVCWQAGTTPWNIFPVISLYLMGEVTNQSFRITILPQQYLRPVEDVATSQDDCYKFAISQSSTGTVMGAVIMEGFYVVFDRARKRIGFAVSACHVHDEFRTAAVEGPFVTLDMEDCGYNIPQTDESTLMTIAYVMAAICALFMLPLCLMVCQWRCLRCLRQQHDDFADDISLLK
Chain of BACE2 (Q9Y5Z0 63-473): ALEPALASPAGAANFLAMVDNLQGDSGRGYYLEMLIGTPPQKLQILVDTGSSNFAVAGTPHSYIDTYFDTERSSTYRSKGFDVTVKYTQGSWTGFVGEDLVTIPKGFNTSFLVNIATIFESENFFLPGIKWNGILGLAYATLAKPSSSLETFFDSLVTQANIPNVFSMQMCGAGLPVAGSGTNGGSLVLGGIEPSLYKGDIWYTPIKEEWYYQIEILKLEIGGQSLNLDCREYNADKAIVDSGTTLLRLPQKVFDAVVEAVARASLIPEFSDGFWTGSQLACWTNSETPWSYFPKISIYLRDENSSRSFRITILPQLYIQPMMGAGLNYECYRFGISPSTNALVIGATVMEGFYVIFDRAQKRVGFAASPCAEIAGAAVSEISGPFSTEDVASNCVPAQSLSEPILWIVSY

As for `C[C@]1(c2cc(NC3CCc4cc(Cl)cnc43)ccc2F)N=C(N)COC[C@@H]1F` (stereo partly drawn) [Example 1, [3-((5R,6R)-3-Amino-6-fluoro-5-methyl-2,5,6,7-tetrahydro-[1,4]oxazepin-5-yl)-4-fluoro-phenyl]-(3-chloro-6,7-dihydro-5H-[1]pyrindin-7-yl)-amine], the IC50 worked out at 70 nM against BACE1 and 24 nM against BACE2.

For the molecule `C[C@]1(c2cc(NCc3nn(C(F)F)cc3Cl)ccc2F)N=C(N)COC[C@@H]1F` [Example 2, (5R,6R)-5-{5-[(4-Chloro-1-difluoromethyl-1H-pyrazol-3-ylmethyl)-amino]-2-fluoro-phenyl}-6-fluoro-5-methyl-2,5,6,7-tetrahydro-[1,4]oxazepin-3-ylamine], the IC50 on BACE1 was 40 nM; at BACE2, 35 nM.

In the case of `C[C@]1(c2cc(NC3CCOC3)ccc2F)N=C(N)COC[C@@H]1F` (stereo partly drawn) [Example 3, (5R,6R)-6-Fluoro-5-[2-fluoro-5-(tetrahydro-furan-3-ylamino)-phenyl]-5-methyl-2,5,6,7-tetrahydro-[1,4]oxazepin-3-ylamine], the IC50 on BACE1 was determined as 580 nM; on BACE2 it was 72 nM.

On to `C[C@]1(c2cc(NC3CCCOC3)ccc2F)N=C(N)COC[C@@H]1F` (stereo partly drawn) [Example 4, (5R,6R)-6-Fluoro-5-[2-fluoro-5-(tetrahydro-pyran-3-ylamino)-phenyl]-5-methyl-2,5,6,7-tetrahydro-[1,4]oxazepin-3-ylamine], for which the IC50 against BACE1 amounted to 400 nM; against BACE2, 73 nM.

For the molecule `C[C@]1(c2cc(NC3CCOCC3)ccc2F)N=C(N)COC[C@@H]1F` [Example 5, (5R,6R)-6-Fluoro-5-[2-fluoro-5-(tetrahydro-pyran-4-ylamino)-phenyl]-5-methyl-2,5,6,7-tetrahydro-[1,4]oxazepin-3-ylamine], the figures for the IC50 against BACE1 and on BACE2 were 2400 nM and 1480 nM, respectively.

On to `C[C@]1(c2cc(NCc3nn(C(F)F)cc3Cl)ccc2F)N=C(N)COCC1(F)F` [Example 6, (R)-5-{5-[(4-Chloro-1-difluoromethyl-1H-pyrazol-3-ylmethyl)-amino]-2-fluoro-phenyl}-6,6-difluoro-5-methyl-2,5,6,7-tetrahydro-[1,4]oxazepin-3-ylamine], for which the IC50 against BACE1 was 30 nM; on BACE2, 11 nM.

`CC[C@]1(c2cc(NCc3nn(C(F)F)cc3Cl)ccc2F)N=C(N)COCC1(F)F` [Example 7, (R)-5-{5-[(4-Chloro-1-difluoromethyl-1H-pyrazol-3-ylmethyl)-amino]-2-fluoro-phenyl}-5-ethyl-6,6-difluoro-2,5,6,7-tetrahydro-[1,4]oxazepin-3-ylamine]: the IC50 is 170 nM at BACE1 and 310 nM against BACE2.

As for `C[C@]1(c2cc(N[C@H]3CCc4cc(Cl)cnc43)ccc2F)N=C(N)COCC1(F)F` [Example 8, [3-((R)-3-Amino-6,6-difluoro-5-methyl-2,5,6,7-tetrahydro-[1,4]oxazepin-5-yl)-4-fluoro-phenyl]-((S)-3-chloro-6,7-dihydro-5H-[1]pyrindin-7-yl)-amine], the results for the half-maximal inhibitory concentration (IC50) on BACE1 and on BACE2 were 90 nM and 30 nM, respectively.

With `C[C@]1(c2cc(N[C@@H]3CCc4cc(Cl)cnc43)ccc2F)N=C(N)COCC1(F)F` [Example 9, [3-((R)-3-Amino-6,6-difluoro-5-methyl-2,5,6,7-tetrahydro-[1,4]oxazepin-5-yl)-4-fluoro-phenyl]-((R)-3-chloro-6,7-dihydro-5H-[1]pyrindin-7-yl)-amine], the IC50 at BACE1 worked out at 2100 nM; against BACE2, 650 nM.

Consider `C[C@]1(c2cc(Nc3ccc(C#N)cc3)ccc2F)N=C(N)COCC1(F)F` [Example 10, 4-[3-((R)-3-Amino-6,6-difluoro-5-methyl-2,5,6,7-tetrahydro-[1,4]oxazepin-5-yl)-4-fluoro-phenylamino]-benzonitrile], for which the figures for the IC50 against BACE1 and on BACE2 were 700 nM and 910 nM, respectively.

Regarding `CC1(C)OCC(N)=N[C@](C)(c2cc(N[C@H]3CCc4cc(C#N)cnc43)ccc2F)C1(F)F` [Example 12, (S)-7-[3-((R)-3-Amino-6,6-difluoro-5,7,7-trimethyl-2,5,6,7-tetrahydro-[1,4]oxazepin-5-yl)-4-fluoro-phenylamino]-6,7-dihydro-5H-[1]pyrindine-3-carbonitrile], the IC50 against BACE1 stood at 120 nM; against BACE2, 5 nM.

For `CC1(C)OCC(N)=N[C@](C)(c2cc(N[C@@H]3CCc4cc(C#N)cnc43)ccc2F)C1(F)F` [Example 13, (R)-7-[3-((R)-3-Amino-6,6-difluoro-5,7,7-trimethyl-2,5,6,7-tetrahydro-[1,4]oxazepin-5-yl)-4-fluoro-phenylamino]-6,7-dihydro-5H-[1]pyrindine-3-carbonitrile], the figures for the IC50 at BACE1 and on BACE2 were 310 nM and 95 nM, respectively.

Take `CC1(C)OCC(N)=N[C@](C)(c2cc(NC3CCc4cc(Cl)cnc43)ccc2F)C1(F)F` (stereo partly drawn) [Example 14, [3-((R)-3-Amino-6,6-difluoro-5,7,7-trimethyl-2,5,6,7-tetrahydro-[1,4]oxazepin-5-yl)-4-fluoro-phenyl]-(3-chloro-6,7-dihydro-5H-[1]pyrindin-7-yl)-amine]: the IC50 against BACE1 worked out at 71 nM; against BACE2, 28 nM.

For the molecule `CC1(C)OCC(N)=N[C@](C)(c2cc(NC3COc4cc(Cl)cnc43)ccc2F)C1(F)F` (stereo partly drawn) [Example 15, [3-((R)-3-Amino-6,6-difluoro-5,7,7-trimethyl-2,5,6,7-tetrahydro-[1,4]oxazepin-5-yl)-4-fluoro-phenyl]-(6-chloro-2,3-dihydro-furo[3,2-b]pyridin-3-yl)-amine], the IC50 is 40 nM at BACE1 and 58 nM on BACE2.

`CC1(C)OCC(N)=N[C@](C)(c2cc(NC3CCCc4cc(C#N)cnc43)ccc2F)C1(F)F` (stereo partly drawn) [Example 16, 8-[3-((R)-3-Amino-6,6-difluoro-5,7,7-trimethyl-2,5,6,7-tetrahydro-[1,4]oxazepin-5-yl)-4-fluoro-phenylamino]-5,6,7,8-tetrahydro-quinoline-3-carbonitrile]: the figures for the IC50 against BACE1 and on BACE2 were 120 nM and 133 nM, respectively.

Regarding `CC1(C)OCC(N)=N[C@](C)(c2cc(NC3COc4cc(Cl)ccc43)ccc2F)C1(F)F` (stereo partly drawn) [Example 17, (R)-5-[5-(6-Chloro-2,3-dihydro-benzofuran-3-ylamino)-2-fluoro-phenyl]-6,6-difluoro-5,7,7-trimethyl-2,5,6,7-tetrahydro-[1,4]oxazepin-3-ylamine], the IC50 on BACE1 worked out at 320 nM; against BACE2, 400 nM.

As for `Cn1ccc(Nc2ccc(F)c([C@@]3(C)N=C(N)COC(C)(C)C3(F)F)c2)n1` [Example 18, (R)-6,6-Difluoro-5-[2-fluoro-5-(1-methyl-1H-pyrazol-3-ylamino)-phenyl]-5,7,7-trimethyl-2,5,6,7-tetrahydro-[1,4]oxazepin-3-ylamine], the IC50 on BACE1 was 240 nM; at BACE2, 530 nM.

As to `CC1(C)OCC(N)=N[C@](C)(c2cc(Nc3ccc(F)cc3)ccc2F)C1(F)F` [Example 19, (R)-6,6-Difluoro-5-[2-fluoro-5-(4-fluoro-phenylamino)-phenyl]-5,7,7-trimethyl-2,5,6,7-tetrahydro-[1,4]oxazepin-3-ylamine], the IC50 came out at 310 nM at BACE1 and 4160 nM at BACE2.

Consider `CC1(C)OCC(N)=N[C@](C)(c2cc(N[C@H]3CCc4cc(C#N)cnc43)c(F)cc2F)C1(F)F` [Example 20, (S)-7-[5-((R)-3-Amino-6,6-difluoro-5,7,7-trimethyl-2,5,6,7-tetrahydro-[1,4]oxazepin-5-yl)-2,4-difluoro-phenylamino]-6,7-dihydro-5H-[1]pyrindine-3-carbonitrile], for which the IC50 on BACE1 was determined as 1900 nM; on BACE2, 170 nM.

For `Cc1ccc(Nc2ccc(F)c([C@@]3(C)N=C(N)COC(C)(C)C3(F)F)c2)cn1` [Example 27, (R)-6,6-Difluoro-5-[2-fluoro-5-(6-methyl-pyridin-3-ylamino)-phenyl]-5,7,7-trimethyl-2,5,6,7-tetrahydro-[1,4]oxazepin-3-ylamine], half-maximal inhibition against BACE1 (IC50) required 5900 nM.
